# In US10787450B2 (BRISTOL-MYERS SQUIBB COMPANY, priority 2016, dated 2020):
# Where two headings read alike, the source gives them in different places.
# What was measured:
# [1] = test system: IL-1 beta-induced coronary stenosis; details: long term treatment; cited from earlier work
# rat stroke model = details: in vivo; cited from earlier work
# [2] = test system: spontaneously hypertensive rat, renal hypertensive rat and deoxycortisone acetate salt hypertensive rat models; details: cited from earlier work
# neointimal formation = details: rats; cited from earlier work
# [3] = test system: congestive heart failure in Dahl salt-sensitive rats; details: rat, in vivo; cited from earlier work
# ROCK2 = ROCK2 (Homo sapiens (Human), UniProt O75116); assay: ROCK2 kinase inhibition assay (FITC peptide substrate, LABCHIP 3000 Reader); assay type: biochemical; details: 5 μM ATP, 1.5 μM peptide substrate
# How it was run: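 Reaction in 20 mM HEPES pH 7.5, 20 mM MgCl2, 0.015% Brij-35, 4 mM DTT with 5 μM ATP and 1.5 μM FITC-AHA-AKRRRLSSLRA-OH peptide, started with Rho kinase, DMSO <2%. EDTA-stopped; phospho and non-phospho peptide separated by mobility shift. IC50 from dose-response curve fit.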
# Sequence of ROCK2 (O75116 whole entry, species assumed): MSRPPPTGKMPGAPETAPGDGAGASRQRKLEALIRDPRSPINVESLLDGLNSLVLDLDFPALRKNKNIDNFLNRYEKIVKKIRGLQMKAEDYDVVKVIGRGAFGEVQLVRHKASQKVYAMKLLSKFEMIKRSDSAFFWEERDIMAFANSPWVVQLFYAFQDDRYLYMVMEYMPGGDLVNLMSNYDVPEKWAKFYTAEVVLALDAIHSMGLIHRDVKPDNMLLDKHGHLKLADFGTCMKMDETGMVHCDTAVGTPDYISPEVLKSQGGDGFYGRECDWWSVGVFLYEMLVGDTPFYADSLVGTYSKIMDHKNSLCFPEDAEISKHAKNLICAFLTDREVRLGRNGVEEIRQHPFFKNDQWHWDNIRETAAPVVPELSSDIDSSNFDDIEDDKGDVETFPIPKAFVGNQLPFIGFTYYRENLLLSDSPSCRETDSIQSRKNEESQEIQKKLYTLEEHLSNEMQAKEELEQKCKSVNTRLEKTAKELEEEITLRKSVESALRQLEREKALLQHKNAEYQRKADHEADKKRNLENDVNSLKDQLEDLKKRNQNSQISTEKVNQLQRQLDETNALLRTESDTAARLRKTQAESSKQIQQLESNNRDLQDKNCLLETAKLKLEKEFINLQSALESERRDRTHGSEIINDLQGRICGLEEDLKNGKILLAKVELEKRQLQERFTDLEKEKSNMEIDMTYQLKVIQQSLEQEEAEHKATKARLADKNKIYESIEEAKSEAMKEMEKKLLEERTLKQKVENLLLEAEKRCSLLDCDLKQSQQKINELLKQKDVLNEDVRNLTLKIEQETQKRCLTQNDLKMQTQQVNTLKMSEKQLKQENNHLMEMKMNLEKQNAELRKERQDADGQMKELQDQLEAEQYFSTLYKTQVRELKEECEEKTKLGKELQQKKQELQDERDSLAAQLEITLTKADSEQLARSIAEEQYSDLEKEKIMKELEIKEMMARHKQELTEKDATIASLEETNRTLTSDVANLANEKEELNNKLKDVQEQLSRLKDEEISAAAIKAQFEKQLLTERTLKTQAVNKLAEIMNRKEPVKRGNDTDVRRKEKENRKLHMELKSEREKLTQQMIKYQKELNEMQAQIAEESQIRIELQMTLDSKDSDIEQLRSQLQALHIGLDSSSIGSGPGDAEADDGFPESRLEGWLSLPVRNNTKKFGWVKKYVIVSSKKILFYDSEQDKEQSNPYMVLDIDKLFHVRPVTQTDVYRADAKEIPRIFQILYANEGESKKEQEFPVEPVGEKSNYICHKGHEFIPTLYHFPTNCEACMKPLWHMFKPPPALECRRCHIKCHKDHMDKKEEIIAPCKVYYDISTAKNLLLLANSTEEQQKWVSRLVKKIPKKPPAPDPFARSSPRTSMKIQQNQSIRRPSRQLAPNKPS
compound,measurement,setting,value
O=S(=O)(c1cccc2cnccc12)N1CCCNCC1 [fasudil],coronary constrictive remodeling,[1],promote a regression of coronary constrictive remodeling
same,coronary stenosis,[1],progressively reduce coronary stenosis
same,infarct size and neurologic deficit,rat stroke model,reduce both the infarct size and neurologic deficit
"C[C@@H](N)[C@H]1CC[C@H](C(=O)Nc2ccncc2)CC1 [Example Y-27632, Y-27632]",effect on blood pressure,[2]; control rats,only a minor effect on blood pressure
same,effect on blood pressure,[2]; three rat models of hypertension,significantly decrease blood pressure
same,neointimal formation,neointimal formation,inhibited neointimal formation
same,"ventricular hypertrophy, fibrosis and function",[3],"improve ventricular hypertrophy, fibrosis and function"
"COc1cccc(CN2C(=O)N(c3ccc(-c4cn[nH]c4)cc3)CC23CCN(C(=O)N(C)C)CC3)c1 [Example 93, 3-(4-(1H-pyrazol-4-yl)phenyl)-1-(3-methoxybenzyl)-N,N-dimethyl-2-oxo-1,3,8-triazaspiro[4.5]decane-8-carboxamide]",IC50,ROCK2,< 3 nM
"COc1cccc(CN2C(=O)N(c3ccc(-c4cn[nH]c4)cn3)CC23CCN(C(=O)C2COC2)CC3)c1 [Example 196, 3-(5-(1H-pyrazol-4-yl)pyridin-2-yl)-1-(3-methoxybenzyl)-8-(oxetane-3-carbonyl)-1,3,8-triazaspiro[4.5]decan-2-one]",IC50,ROCK2,3 to 30 nM
"COc1cccc(CN2C(=O)N(c3ccc(-c4cn[nH]c4)cc3)CC23CCN(C(=O)[C@@H](C)O)CC3)c1 [Example 178, (R)-3-(4-(1H-pyrazol-4-yl)phenyl)-8-(2-hydroxypropanoyl)-1-(3-methoxybenzyl)-1,3,8-triazaspiro[4.5]decan-2-one]",IC50,ROCK2,< 3 nM
"COc1cccc(CN2C(=O)N(c3ccc(-c4cn[nH]c4)cc3)CC23CCN(C2COC2)CC3)c1 [Example 235, 3-(4-(1H-pyrazol-4-yl)phenyl)-1-(3-methoxybenzyl)-8-(oxetan-3-yl)-1,3,8-triazaspiro[4.5]decan-2-one]",IC50,ROCK2,< 3 nM
"CCc1nc(N2CC3(CCN(C(=O)C(C)C)CC3)N(Cc3cccc(OC)c3)C2=O)ccc1-c1cn[nH]c1 [Example 201, 3-(6-ethyl-5-(1H-pyrazol-4-yl)pyridin-2-yl)-8-isobutyryl-1-(3-methoxybenzyl)-1,3,8-triazaspiro[4.5]decan-2-one]",IC50,ROCK2,< 3 nM
